From patent US20150374718A1, “Zhankuic Acid A and Analogs thereof and Their Use as an Anti-Inflammatory Agent” (National Cheng Kung University, priority 2014, published 2015)
Entries after “also recorded” stand apart in the source; their conditions may differ.

What was measured:
[1] = test system: LPS-induced NO production; conditions: reference (10); cited from earlier work
recombinant human MD-2 = target: T1, recombinant human MD-2 (Homo sapiens, UniProt Q9Y6Y9); assay: Native PAGE binding analysis with anti-MD-2 antibodies; conditions: MD-2 0.15 μg, 3 h at 37° C.
T1 construct: purchased R&D
T1 sequence (Q9Y6Y9 19-160): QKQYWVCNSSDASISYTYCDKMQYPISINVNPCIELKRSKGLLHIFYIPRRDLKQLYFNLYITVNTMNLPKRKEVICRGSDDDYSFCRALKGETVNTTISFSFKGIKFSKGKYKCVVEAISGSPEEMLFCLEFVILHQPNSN
Text: FIG. 2. ZAA interacts with the hydrophobic binding pocket of MD-2. […] The amino acids G1y110-Asn158 shown in magenta, which reside within the immunogenic peptide fragment of MD-2 amino acids 110-160, are around the ZAA-binding site in the ribbon model of MD-2. Gly110 and Asn158 are indicated by arrows. (B) Interactions involved in the binding of ZAA to the hydrophobic amino acid residues within the MD-2 binding pocket are shown. […] Similar results were obtained in three independent experiments.
Samples were subjected to native PAGE, and the levels of TLR4-associated or free MD-2 were detected by immunoblotting with two anti-MD-2 antibodies, rabbit polyclonal antibody against MD-2 amino acids 110-160 (abcam, Cambridge, Mass.) and mouse monoclonal antibody against MD-2 amino acids 2-160 (abcam). Signals were detected via ECL.

[2] = test system: S. choleraesuis-induced TNF-α and IL-6 production; assay: Plasma cytokines in S. choleraesuis-infected mice; assay type: in vivo; conditions: C57BL/6 mice; ZAA 10 mg/kg, oral S. choleraesuis 2×10^9 CFU/mouse; 6 h
COX2 and iNOS = assay: Immunoblot of COX2 and iNOS in LPS-stimulated peritoneal macrophages; assay type: cell-based, murine; conditions: ZAA 1 h, then LPS 0.5 μg/mL 24 h; dose-dependent
Description: (§1) FIG. 1. ZAA inhibits the production of inflammation-related molecules in LPS- and IFN-γ-stimulated murine macrophages. […] Total cell lysates were subjected to immunoblotting for detecting COX2 and iNOS. Relative expression levels of COX2 and iNOS protein were quantified by densitometric analysis with ImageJ software and normalized according to the β-actin reference band. […] The presence of nitrite in the culture medium was analyzed by the Griess assay and used as an indication of NO levels (n=4; *p<0.05 and ***p<0.001 vs. LPS- or IFN-γ-induced cells). (C) Raw264.7 cells were cotransfected with pNFKB-Luc and pβ-actin-LacZ plasmids. […] Total cell lysates were harvested, and their luciferase activities were determined and normalized on the basis of β-galactosidase activities. Values are means±SD (n=4; *p<0.05 and **p<0.01 vs. LPS-stimulated cells). […] Numbers below the blots in D and those shown in the table below the blots in E represent the relative expression levels quantified by densitometric analysis with ImageJ software and normalized according to the β-actin reference bands. […]
(§2) C57BL/6 mice were injected intraperitoneally with 3% thioglycollate, and their peritoneal macrophages were collected 72 h later. […] The presence of nitrite (a metabolite of NO) in the culture medium was analyzed by the Griess assay (Sigma-Aldrich), as previously described (16).

[3] = test system: LPS-induced TNF-α and IL-6 production; assay: Plasma cytokines in LPS-injected mice; assay type: in vivo; conditions: ZAA i.p. 30 min before LPS 4 mg/kg i.p., 6 h
[4] = test system: S. choleraesuis-induced TNF-α and IL-6 production; assay: ELISA of cytokines in S. choleraesuis-treated RAW264.7 cells; assay type: cell-based, murine; conditions: ZAA 1 h, 2×10^3 CFU/well
NO production = assay: Griess assay of nitrite (NO) in macrophage culture medium; assay type: cell-based, murine; conditions: ZAA 1 h, dose-dependent
Description: as §1, §2

[5] = test system: NF-κB, MAPK, and Akt signaling pathways; assay: Immunoblot of NF-κB, MAPK and Akt signaling in LPS-stimulated RAW264.7 cells; assay type: cell-based, murine; conditions: ZAA 1 h, then LPS 30 min
Description: as §1, with “activities.” for “activities. Values are means±SD (n=4; *p<0.05 and **p<0.01 vs. LPS-stimulated cells).”
Cell lysates were analyzed by immunoblotting with primary antibodies against pIKKα/β, IkBα, pNF-κBp65, pERK, ERK, pJNK, JNK, pAkt, Akt, pp38, p38, and β-actin, followed by appropriate secondary antibodies Immunoreactive protein bands were detected using an enhanced chemiluminescence (ECL) kit (Pierce Biotechnology, Rockford, Ill.). […]

human neutrophils = conditions: reference (9), cited from earlier work
S. choleraesuis = S. choleraesuis growth in LB broth (absorbance at 600 nm); conditions: 24 or 48 h, various concentrations, listed as ZAA
Description: S. choleraesuis was cultured in LB broth for 24 or 48 h in the presence of various concentrations of ZAA or ampicillin that served as a positive control. Bacterial growth was assessed by measurement of the absorbance at 600 nm and is expressed as means±SD of at least three independent experiments.

[6] = test system: LPS-induced TNF-α and IL-6 production; assay: ELISA of cytokines in LPS-treated RAW264.7 cells; assay type: cell-based, murine; conditions: ZAA 1 h, LPS 0.25 or 0.5 μg/mL
[7] = test system: NF-κB-mediated transactivation in Raw264.7 cells; assay: NF-κB luciferase reporter assay; assay type: cell-based, murine; conditions: ZAA 1 h, then LPS 24 h
Description: as §1, with “activities.” for “activities. Values are means±SD (n=4; *p<0.05 and **p<0.01 vs. LPS-stimulated cells).”
Subconfluent Raw264.7 cells cultured in 24-well plates were cotransfected with p-NFκB-Luc and pβ-actin-LacZ plasmids using the Neon Transfection System (Invitrogen, Carlsbad, Calif.) according to the manufacturer's protocol. […] Relative luciferase activity was measured as luciferase activity divided by β-galactosidase activity to normalize transfection efficiency.

[8] = TLR4 signaling-defective C3H/HeJ mice

In the case of `C=C(CC[C@@H](C)[C@H]1CC[C@H]2C3=C(C(=O)C[C@]12C)[C@@]1(C)CCC(=O)[C@@H](C)[C@@H]1CC3=O)C(C)C(=O)O` (some centres unmarked) [No. 1, Zhankuic acid A], the “LPS-induced NO production” value [1] is given as “inhibiting”, the “recognition of anti-MD-2 antibodies (aa 110-160 and 2-160) to native MD-2” value (recombinant human MD-2) is given as “reduced the recognition of both antibodies to native MD-2” and the “S. choleraesuis-induced IL-6 production” value [2] is given as “effectively suppressed”. The “S. choleraesuis-induced TNF-α production” value [2] was “effectively suppressed”, the “level of COX2 induced by LPS” value (COX2 and iNOS) was “downregulated” and the “level of iNOS induced by LPS” value (COX2 and iNOS) was “downregulated”. For the same compound, the “plasma IL-6 production” value ([3]; C3H/HeN mice) was “significantly reduced”, the “plasma TNF-α production” value ([3]; C3H/HeN mice) was “significantly reduced” and the “plasma IL-6 production” value [3, 8] was “a much weaker response”. For the same compound, the “plasma TNF-α production” value [3, 8] was “a much weaker response”, the “S. choleraesuis-induced TNF-α production” value ([4]; 4 h) was “effectively suppressed” and the “S. choleraesuis-induced IL-6 production” value ([4]; 6 h) was “effectively suppressed”. For the same compound, the “IFN-γ-induced NO production” value (NO production; then IFN-γ 50 ng/mL 24 h) was “inhibited”, the “LPS-induced NO production” value (NO production; then LPS 0.5 μg/mL 24 h) was “inhibited” and the “LPS-induced phosphorylation of ERK, JNK, p38, and Akt” value [5] was “inhibited”. The “LPS-stimulated NF-κBp65 phosphorylation” value [5] was “significantly prevented”, the ROS production (human neutrophils; fMLP- or PMA-activated peripheral human neutrophils) was “inhibits” and the cytotoxicity (human neutrophils; human neutrophils) was “without exerting significant cytotoxicity”. For the same compound, the “inflammatory responses by human neutrophils” value (human neutrophils) was “prevent inflammatory responses”, the “direct effect on growth / replication of Salmonella” value (S. choleraesuis) was “cannot inhibit; also recorded: no direct inhibitory effects” and the “LPS-induced TNF-α production” value ([6]; supernatant after 4 h) was “inhibited”. For the same compound, the “LPS-induced IL-6 production” value ([6]; supernatant after 6 h) was “inhibited” and the “NF-κB-mediated transactivation (relative luciferase activity)” value [7] was “inhibited”.
